Measured values: PubChem BioAssay AID1845205 (Molecular Pharmacology Branch, DTP, NCI, 2023)

Test system: MPNST multicellular tumor spheroids, viability % test/control
Experiment: Anticancer human tumor MPNST cell line growth inhibition;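 further: spheroids exposed to agents for seven days after three days of growth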;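 on viability, T/C: luminescence signal used as surrogate for viable cell amount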
Conditions: for IC50: curve of first compound; for viability, T/C: stronger effect = lower value
Outline: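 Complex spheroids of malignant cells with endothelial cells and mesenchymal stem cells; agents alone or combined, from near clinical Cmax (or 10 microM if unknown) down in half-log steps, 0.25% DMSO final.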

[1] = second compound 0.003 µM, first compound 0.00949 µM
[2] = second compound 0.003 µM, first compound 0.03 µM
[3] = second compound 0.003 µM, first compound 0.0949 µM
[4] = second compound 0.003 µM, first compound 0.3 µM
[5] = second compound 0.003 µM, first compound 0.949 µM
[6] = second compound 0.003 µM, first compound 3 µM
[7] = second compound 1 µM, first compound 0.0316 µM
[8] = second compound 1 µM, first compound 0.1 µM
[9] = second compound 1 µM, first compound 0.316 µM
[10] = second compound 1 µM, first compound 1 µM
[11] = second compound 1 µM, first compound 3.16 µM
[12] = second compound 1 µM, first compound 10 µM
[13] = second compound 3.16 µM, first compound 0.0316 µM
[14] = second compound 3.16 µM, first compound 0.1 µM
[15] = second compound 3.16 µM, first compound 0.316 µM
[16] = second compound 3.16 µM, first compound 1 µM
[17] = second compound 3.16 µM, first compound 3.16 µM
[18] = second compound 3.16 µM, first compound 10 µM
[19] = second compound 10 µM, first compound 0.0316 µM
[20] = second compound 10 µM, first compound 0.1 µM
[21] = second compound 10 µM, first compound 0.316 µM
[22] = second compound 10 µM, first compound 1 µM
[23] = second compound 10 µM, first compound 3.16 µM
[24] = second compound 10 µM, first compound 10 µM
[25] = second compound 31.6 µM, first compound 0.0316 µM
[26] = second compound 31.6 µM, first compound 0.1 µM
[27] = second compound 31.6 µM, first compound 0.316 µM
[28] = second compound 31.6 µM, first compound 1 µM
[29] = second compound 31.6 µM, first compound 3.16 µM
[30] = second compound 31.6 µM, first compound 10 µM
[31] = second compound 100 µM, first compound 0.0316 µM
[32] = second compound 100 µM, first compound 0.1 µM
[33] = second compound 100 µM, first compound 0.316 µM
[34] = second compound 100 µM, first compound 1 µM
[35] = second compound 100 µM, first compound 3.16 µM
[36] = second compound 100 µM, first compound 10 µM

## Cc1sc2c(c1C)C(c1ccc(Cl)cc1)=NC(CC(=O)Nc1ccc(O)cc1)c1nnc(C)n1-2 (stereo not given) + COc1cc2c(cc1O)CCNC21CSC2c3c(OC(C)=O)c(C)c4c(c3C(COC1=O)N1C(O)C3Cc5cc(C)c(OC)c(O)c5C(C21)N3C)OCO4
Second compound 30 pM
  IC50: 219 nM
Second compound 94.9 pM
  IC50: 155 nM
Second compound 0.0003 µM
  IC50: 58.4 nM
Second compound 0.000949 µM
  IC50: < 9.49 nM
Second compound 0.003 µM
  IC50: < 9.49 nM
Second compound 30 pM, first compound 0.00949 µM
  viability, T/C: 86.9%
Second compound 30 pM, first compound 0.03 µM
  viability, T/C: 71%
Second compound 30 pM, first compound 0.0949 µM
  viability, T/C: 85.7%
Second compound 30 pM, first compound 0.3 µM
  viability, T/C: 38.2%
Second compound 30 pM, first compound 0.949 µM
  viability, T/C: 26.3%
Second compound 30 pM, first compound 3 µM
  viability, T/C: 24%
Second compound 94.9 pM, first compound 0.00949 µM
  viability, T/C: 62.5%
Second compound 94.9 pM, first compound 0.03 µM
  viability, T/C: 70.3%
Second compound 94.9 pM, first compound 0.0949 µM
  viability, T/C: 56.6%
Second compound 94.9 pM, first compound 0.3 µM
  viability, T/C: 39.3%
Second compound 94.9 pM, first compound 0.949 µM
  viability, T/C: 27.9%
Second compound 94.9 pM, first compound 3 µM
  viability, T/C: 23.9%
Second compound 0.0003 µM, first compound 0.00949 µM
  viability, T/C: 59.6%
Second compound 0.0003 µM, first compound 0.03 µM
  viability, T/C: 53.3%
Second compound 0.0003 µM, first compound 0.0949 µM
  viability, T/C: 47.5%
Second compound 0.0003 µM, first compound 0.3 µM
  viability, T/C: 36.3%
Second compound 0.0003 µM, first compound 0.949 µM
  viability, T/C: 26.6%
Second compound 0.0003 µM, first compound 3 µM
  viability, T/C: 22.4%
Second compound 0.000949 µM, first compound 0.00949 µM
  viability, T/C: 31%
Second compound 0.000949 µM, first compound 0.03 µM
  viability, T/C: 29.7%
Second compound 0.000949 µM, first compound 0.0949 µM
  viability, T/C: 27.4%
Second compound 0.000949 µM, first compound 0.3 µM
  viability, T/C: 21.6%
Second compound 0.000949 µM, first compound 0.949 µM
  viability, T/C: 12.7%
Second compound 0.000949 µM, first compound 3 µM
  viability, T/C: 14.8%
[1]
  viability, T/C: 6.19%
[2]
  viability, T/C: 4.21%
[3]
  viability, T/C: 4.96%
[4]
  viability, T/C: 1.41%
[5]
  viability, T/C: 2.26%
[6]
  viability, T/C: 1.94%

## [2H]c1nc(C)nc([2H])c1-c1cc(NC[C@@H](C)c2cccc3c(C(=O)NC)ccnc23)ncn1 + Cn1nnc2c(C(N)=O)ncn2c1=O
Second compound 1 µM
  IC50: > 10000 nM
Second compound 3.16 µM
  IC50: > 10000 nM
Second compound 10 µM
  IC50: > 10000 nM
Second compound 31.6 µM
  IC50: > 10000 nM
Second compound 100 µM
  IC50: > 10000 nM
[7]
  viability, T/C: 86.5%
[8]
  viability, T/C: 86.8%
[9]
  viability, T/C: 93.2%
[10]
  viability, T/C: 101%
[11]
  viability, T/C: 97.3%
[12]
  viability, T/C: 104%
[13]
  viability, T/C: 114%
[14]
  viability, T/C: 100%
[15]
  viability, T/C: 76.3%
[16]
  viability, T/C: 91%
[17]
  viability, T/C: 89.8%
[18]
  viability, T/C: 104%
[19]
  viability, T/C: 81.1%
[20]
  viability, T/C: 94.9%
[21]
  viability, T/C: 108%
[22]
  viability, T/C: 116%
[23]
  viability, T/C: 94.1%
[24]
  viability, T/C: 108%
[25]
  viability, T/C: 85%
[26]
  viability, T/C: 85.9%
[27]
  viability, T/C: 79.5%
[28]
  viability, T/C: 96.8%
[29]
  viability, T/C: 78.7%
[30]
  viability, T/C: 101%
[31]
  viability, T/C: 89.5%
[32]
  viability, T/C: 111%
[33]
  viability, T/C: 113%
[34]
  viability, T/C: 81.1%
[35]
  viability, T/C: 107%
[36]
  viability, T/C: 89.9%

## CC1COCCN1c1cc(-c2ccnn2C)c2ccnc(-c3ccn[nH]3)c2n1 (stereo not given) + Cn1nnc2c(C(N)=O)ncn2c1=O
Second compound 1 µM
  IC50: 198 nM
Second compound 3.16 µM
  IC50: 238 nM
Second compound 10 µM
  IC50: 142 nM
Second compound 31.6 µM
  IC50: 386 nM
Second compound 100 µM
  IC50: 182 nM
[7]
  viability, T/C: 62%
[8]
  viability, T/C: 55.8%
[9]
  viability, T/C: 45.8%
[10]
  viability, T/C: 39.7%
[11]
  viability, T/C: 34.1%
[12]
  viability, T/C: 35.3%
[13]
  viability, T/C: 62.2%
[14]
  viability, T/C: 56.2%
[15]
  viability, T/C: 47.9%
[16]
  viability, T/C: 39.5%
[17]
  viability, T/C: 31%
[18]
  viability, T/C: 31.9%
[19]
  viability, T/C: 64.2%
[20]
  viability, T/C: 52.2%
[21]
  viability, T/C: 45.2%
[22]
  viability, T/C: 38.2%
[23]
  viability, T/C: 35.9%
[24]
  viability, T/C: 34.4%
[25]
  viability, T/C: 61.8%
[26]
  viability, T/C: 57.1%
[27]
  viability, T/C: 52.5%
[28]
  viability, T/C: 41.2%
[29]
  viability, T/C: 32.2%
[30]
  viability, T/C: 31.5%
[31]
  viability, T/C: 63.6%
[32]
  viability, T/C: 54.4%
[33]
  viability, T/C: 46.1%
[34]
  viability, T/C: 37.1%
[35]
  viability, T/C: 30.2%
[36]
  viability, T/C: 31.8%

## CNCc1ccc(-c2cc(-c3nc(-c4ccc(S(=O)(=O)C(C)C)cc4)cnc3N)on2)cc1 + CC[C@@]1(O)C(=O)OCc2c1cc1n(c2=O)Cc2cc3c(CN(C)C)c(O)ccc3nc2-1
Second compound 0.003 µM
  IC50: > 3000 nM
Second compound 0.00949 µM
  IC50: > 3000 nM
Second compound 0.03 µM
  IC50: > 3000 nM
Second compound 0.0949 µM
  IC50: > 3000 nM
Second compound 0.3 µM
  IC50: < 9.49 nM
[1]
  viability, T/C: 104%
[2]
  viability, T/C: 99.3%
[3]
  viability, T/C: 71.8%
[4]
  viability, T/C: 61.4%
[5]
  viability, T/C: 64.3%
[6]
  viability, T/C: 61.7%
Second compound 0.00949 µM, first compound 0.00949 µM
  viability, T/C: 75.6%
Second compound 0.00949 µM, first compound 0.03 µM
  viability, T/C: 74.3%
Second compound 0.00949 µM, first compound 0.0949 µM
  viability, T/C: 59.7%
Second compound 0.00949 µM, first compound 0.3 µM
  viability, T/C: 58%
Second compound 0.00949 µM, first compound 0.949 µM
  viability, T/C: 60.3%
Second compound 0.00949 µM, first compound 3 µM
  viability, T/C: 66.6%
Second compound 0.03 µM, first compound 0.00949 µM
  viability, T/C: 61.9%
Second compound 0.03 µM, first compound 0.03 µM
  viability, T/C: 55.1%
Second compound 0.03 µM, first compound 0.0949 µM
  viability, T/C: 53.8%
Second compound 0.03 µM, first compound 0.3 µM
  viability, T/C: 57.1%
Second compound 0.03 µM, first compound 0.949 µM
  viability, T/C: 63.7%
Second compound 0.03 µM, first compound 3 µM
  viability, T/C: 64.9%
Second compound 0.0949 µM, first compound 0.00949 µM
  viability, T/C: 57.7%
Second compound 0.0949 µM, first compound 0.03 µM
  viability, T/C: 54.8%
Second compound 0.0949 µM, first compound 0.0949 µM
  viability, T/C: 56.8%
Second compound 0.0949 µM, first compound 0.3 µM
  viability, T/C: 64.7%
Second compound 0.0949 µM, first compound 0.949 µM
  viability, T/C: 58.1%
Second compound 0.0949 µM, first compound 3 µM
  viability, T/C: 70.7%
Second compound 0.3 µM, first compound 0.00949 µM
  viability, T/C: 46.1%
Second compound 0.3 µM, first compound 0.03 µM
  viability, T/C: 45%
Second compound 0.3 µM, first compound 0.0949 µM
  viability, T/C: 48.8%
Second compound 0.3 µM, first compound 0.3 µM
  viability, T/C: 50%
Second compound 0.3 µM, first compound 0.949 µM
  viability, T/C: 55.5%
Second compound 0.3 µM, first compound 3 µM
  viability, T/C: 52.7%
